The values that follow come from paper PMC10786919, “Design-rules for stapled peptides with in vivo activity and their application to Mdm2/X antagonists” (Nature Communications, 2024).

In series [1] the test system is cells transiently transfected with the NanoLuc-HaloTag vector. The series can be described thus: in vitro. To be noted: for cell entry EC50: 4 h; for Nanoclick permeability assay % Effect: 4Hr. The method in brief: (§1)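 Azido-peptide permeability was read as loss of NanoBRET signal (donor 450 nm, acceptor 610 nm) after adding NanoBret618-azide at 10 μM final.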
For series [2], the system named is CellSensor p53RE-bla HCT-116 Cell Line. To be noted: 72 h. Put shortly: (§2)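 Compound dilution series (10 points, 3-fold, 10 mM top stock in DMSO) tested on overnight-plated Ca Ski cells in RPMI1640/10% FBS and on blasticidin-selected p53RE-bla HCT-116 cells in McCoy's 5A; read-out was CellTiter-Glo 2.0 luminescence after room-temperature equilibration.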
The test system of the next series is Ca Ski cell line. As to conditions: 72 h. Put shortly:
as §2

A short description of a further series: in vitro. Put shortly: as §1
A short description of series [3]: Solubility assay (kinetic solubility, PBS pH 7). It counts as physicochemical. The method in brief: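 Values derive from peak-area ratios of sample versus a 100 µM standard, scaled by that standard's concentration.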
Series [4] deals with p53 responsive β-lactamase reporter in HCT116 cells. The series can be described thus: cells. It counts as cell-based. The method in brief:
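Read-out used the ToxBLAzer Dual Screen for β-lactamase driven by a stably integrated p53-responsive reporter. Assay: 8000 HCT116 cells per well at 0.5% final DMSO. Reported numbers are geometric means over a minimum of three biological replicates.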

The test system of series [5] is Jump-In T-REx CHO-K1 BLA cells. The series is described as follows: cells. It counts as cell-based. As to conditions: for EC50: read-out: TETCHO: Counterscreen EC50.
The nature of series [6]: Experimental LogD (partition coefficient). As to conditions: not stated, Partition Coeff LogD.
A further series deals with HCT116 cells. The series can be described thus: Lactate dehydrogenase (LDH) release assay. It is filed as cell-based. The method in brief: (§3)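 Geometric means of at least three independent biological runs are given for LDH release measured in HCT116 cells stably expressing a p53-driven β-lactamase reporter. Plating density was 8000 cells/well; DMSO in wells was 0.5%.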
A short description of series [7]: Lactate dehydrogenase (LDH) release assay. It counts as cell-based. Put shortly: as §3
The mark [8] stands for this setting: Nanoclick permeability assay EC50.
Setting [9] is: pH 7, aqueous buffer, kinetic from dmso stock, pH 7, PBS, read-out: Solubility.
[10] abbreviates: 0% FBS 4Hr, read-out: p53 reporter assay EC50.
Where [11] appears, read: 0% FBS 4Hr, read-out: LDH: Cytotoxicity assay EC50.
Setting [12] is: 10% FBS 16Hr, read-out: LDH: Cytotoxicity assay EC50.

In brackets after ≈: the same amount, converted by molar mass. Where two headings read alike, the source gives them in different places. Positions of bridges follow the written chain, without caps; N, C: chain ends. Non-standard residues stand in square brackets, D forms with d. Residues, ends and D or L forms follow the SMILES beside them. Lys(N3) = [N-]=[N+]=NCCCC[C@H](N)C(=O)O; R8 = C=CCCCCCC[C@@](C)(N)C(=O)O; Cba = N[C@@H](CC1CCC1)C(=O)O; S5 = C=CCCC[C@](C)(N)C(=O)O; Ahx = NCCCCCC(=O)O; βAla = NCCC(=O)O

Turning to `CC(=O)N[C@@H](CCCCN=[N+]=[N-])C(=O)NCCC(=O)N[C@@H](CC(C)C)C(=O)N[C@H](C(=O)N[C@@H](Cc1ccccc1)C(=O)N[C@]1(C)CCCCCCC=CCCC[C@@](C)(C(=O)N[C@@H](C)C(=O)N[C@@H](C)C(=O)N[C@@H](C)C(=O)N[C@@H](C)C(=O)N[C@@H](C)C(=O)N[C@@H](C)C(=O)N[C@@H](C)C(N)=O)NC(=O)[C@H](CC2CCC2)NC(=O)[C@H](CCC(N)=O)NC(=O)[C@H](C)NC(=O)[C@H](Cc2c[nH]c3ccccc23)NC(=O)[C@H](Cc2ccc(O)cc2)NC(=O)[C@H](CCC(=O)O)NC1=O)[C@@H](C)O` [MP-471], in series [1], the cell entry EC50 is 1.35 µM. The EC50 in [2] was determined as 10.7 µM; with Ca Ski cell line, 26.7 µM.
Take `CC(=O)N[C@@H](CCCCN=[N+]=[N-])C(=O)NCCC(=O)N[C@@H](CC(C)C)C(=O)N[C@H](C(=O)N[C@@H](CO)C(=O)N[C@]1(C)CCCCCCC=CCCC[C@@](C)(C(=O)N[C@@H](CO)C(=O)N[C@@H](C)C(=O)N[C@@H](C)C(N)=O)NC(=O)[C@H](CO)NC(=O)[C@H](CCC(N)=O)NC(=O)[C@H](C)NC(=O)[C@H](CO)NC(=O)[C@H](Cc2ccc(O)cc2)NC(=O)[C@H](CCC(=O)O)NC1=O)[C@@H](C)O` [MP-3352] (Ac-[Lys(N3)][βAla]LTS[R8]EYSAQS[S5]SAA-NH2; staple 6-13): in the series “in vitro” (setting [8]), the cell entry EC50 is 8.79 µM. Moreover, in series [1], the “Nanoclick permeability assay % Effect” value is reported as 36.66%. In addition, in [3] (setting [9]), the solubility kinetic worked out at 28 µM (≈ 49.6 µg/mL). The EC50 in series [4] (0% FBS 4Hr, read-out: p53 reporter assay: EC50) was above 50.6 µM; in series [5] (0% FBS 4Hr), above 50.6 µM; in series [7] (LDH: Cytotoxicity assay: EC50) it was above 50.6 µM. For the same compound, the “TETCHO: Counterscreen % Effect” value in [5] (0% FBS 4Hr) came to 0.41%. Moreover, in the series “physchem”, the EPSA worked out at 197 A^2. For the same compound, the logD in series [6] turned out to be 1.55. The “LDH: Cytotoxicity assay: % Effect” value with HCT116 cells was -2.39%.
`CC(=O)N[C@@H](CCCCN=[N+]=[N-])C(=O)NCCC(=O)N[C@@H](CC(C)C)C(=O)N[C@H](C(=O)N[C@@H](Cc1ccccc1)C(=O)N[C@]1(C)CCCCCCC=CCCC[C@@](C)(C(=O)N[C@@H](C)C(=O)N[C@@H](CC(N)=O)C(=O)N[C@@H](C)C(=O)N[C@@H](C)C(=O)N[C@@H](C)C(=O)N[C@H](C)C(N)=O)NC(=O)[C@H](CC2CCC2)NC(=O)[C@H](CCC(N)=O)NC(=O)[C@H](C)NC(=O)[C@H](Cc2c[nH]c3ccccc23)NC(=O)[C@H](Cc2ccc(O)cc2)NC(=O)[C@H](CCC(=O)O)NC1=O)[C@@H](C)O` [MP-967, AZIDE-KK-ATSP-7041 (L1A,T2A,E5A,Q9A,S12A)] (Ac-[Lys(N3)][βAla]LTF[R8]EYWAQ[Cba][S5]ANAAA[dA]-NH2; staple 6-13): the cell entry EC50 in “in vitro” was 3.89 µM. Also, in series [1], the “Nanoclick permeability assay % Effect” value is reported as 137.2%. In addition, in [3] (setting [9]), the solubility kinetic is 161 µM (≈ 356 µg/mL). Moreover, the “p53 reporter assay % Effect” value is given as 98.42% in series [4] (0% FBS 4Hr) and 97.47% in series [4] (10% FBS 16Hr). The EC50 in [4] (setting [10]) is 0.524 µM; in series [4] (10% FBS 16Hr, read-out: p53 reporter assay EC50), 0.937 µM; in series [5] (0% FBS 4Hr), above 50.4 µM; in series [5] (10% FBS 16Hr) it was above 50.4 µM; in series [7] (setting [11]) it was above 50.7 µM; in series [7] (setting [12]), above 50.7 µM. For the same compound, the “TETCHO: Counterscreen % Effect” value in series [5] (0% FBS 4Hr) is -0.6324%; in series [5] (10% FBS 16Hr) it was -28.5%. The logD in [6] turned out to be 3.08. For the same compound, the “LDH: Cytotoxicity assay % Effect” value with HCT116 cells (0% FBS 4Hr) came to 5.243%; in the series with HCT116 cells (10% FBS 16Hr), 11.93%.
Take `CC(=O)N[C@@H](CCCCN=[N+]=[N-])C(=O)NCCC(=O)N[C@@H](CC(C)C)C(=O)N[C@H](C(=O)N[C@@H](Cc1ccccc1)C(=O)N[C@]1(C)CCCCCCC=CCCC[C@@](C)(C(=O)N2CCC[C@H]2C(=O)N2CCC[C@H]2C(=O)N2CCC[C@H]2C(=O)N2CCC[C@H]2C(=O)N2CCC[C@H]2C(=O)N2CCC[C@H]2C(N)=O)NC(=O)[C@H](CC2CCC2)NC(=O)[C@H](CCC(N)=O)NC(=O)[C@H](C)NC(=O)[C@H](Cc2c[nH]c3ccccc23)NC(=O)[C@H](Cc2ccc(O)cc2)NC(=O)[C@H](CCC(=O)O)NC1=O)[C@@H](C)O` [MP-094]: the cell entry EC50 in series [1] came to 0.942 µM. In addition, in series [3] (pH 7, read-out: Solubility), the solubility kinetic is given as 158 µM (≈ 367 µg/mL). Besides, the EC50 in [2] was 1.33 µM; with Ca Ski cell line it was above 49.8 µM.
Turning to `CC(=O)N[C@@H](CCCCN=[N+]=[N-])C(=O)NCCC(=O)N[C@@H](CC(C)C)C(=O)N[C@H](C(=O)N[C@@H](Cc1ccccc1)C(=O)N[C@]1(C)CCCCCCC=CCCC[C@@](C)(C(=O)N[C@@H](C)C(=O)N[C@@H](CCC(=O)O)C(=O)N[C@@H](C)C(=O)N[C@@H](C)C(=O)N[C@@H](C)C(=O)N[C@H](C)C(N)=O)NC(=O)[C@H](CC2CCC2)NC(=O)[C@H](CCC(N)=O)NC(=O)[C@H](C)NC(=O)[C@H](Cc2c[nH]c3ccccc23)NC(=O)[C@H](Cc2ccc(O)cc2)NC(=O)[C@H](CCC(=O)O)NC1=O)[C@@H](C)O` [MP-965, AZIDE-ATSP-7041 (E5A,S12A)] (Ac-[Lys(N3)][βAla]LTF[R8]EYWAQ[Cba][S5]AEAAA[dA]-NH2; staple 6-13), the cell entry EC50 in the series “in vitro” was 0.581 µM. The “Nanoclick permeability assay % Effect” value in [1] is recorded as 110.3%. Moreover, in [3] (setting [9]), the solubility kinetic was 161 µM (≈ 358 µg/mL). For the same compound, the figures for the “p53 reporter assay % Effect” value in series [4] (0% FBS 4Hr) and in series [4] (10% FBS 16Hr) were 97.76% and 86.7%, respectively. For the same compound, the EC50 in series [4] (setting [10]) was 1.11 µM; in [4] (read-out: Cell EC50 (16 hr, 10% FBS), p53 reporter assay, 16 hr, 10% FBS), 2.2 µM; in series [5] (0% FBS 4Hr) it was above 50.4 µM; in series [5] (10% FBS 16Hr), above 50.4 µM; in [7] (setting [11]), above 50.7 µM; in series [7] (setting [12]) it was above 50.7 µM. Besides, the “TETCHO: Counterscreen % Effect” value in [5] (0% FBS 4Hr) is -2.385%; in [5] (10% FBS 16Hr), -17.5%. Further, in series [6], the logD is 2.69. Also, the “LDH: Cytotoxicity assay % Effect” value in the series with HCT116 cells (0% FBS 4Hr) is on record as -4.408%; in the series on HCT116 cells (10% FBS 16Hr) it was 5.517%.
As for `CC(=O)N[C@@H](CCC(=O)O)C(=O)N[C@@H](CCC(=O)O)C(=O)N[C@@H](CCC(=O)O)C(=O)N[C@@H](CCCCN=[N+]=[N-])C(=O)NCCCCCC(=O)N[C@H](C(=O)N[C@@H](CO)C(=O)N[C@@H](Cc1ccccc1)C(=O)N[C@]1(C)CCCCCCC=CCCC[C@@](C)(C(N)=O)NC(=O)[C@H](CC(C)C)NC(=O)[C@H](CC(C)C)NC(=O)[C@H](C)NC(=O)[C@H](Cc2c[nH]c3ccccc23)NC(=O)[C@H](Cc2c[nH]c3ccccc23)NC(=O)[C@H](Cc2ccc(O)cc2)NC(=O)[C@H](CCC(=O)O)NC1=O)[C@@H](C)O` [MP-9662] (Ac-EEE[Lys(N3)][Ahx]TSF[R8]EYWWALL[S5]-NH2; staple 9-17), the cell entry EC50 in “in vitro” (setting [8]) was determined as 0.637 µM. In addition, in series [1], the “Nanoclick permeability assay % Effect” value is 111.3%. The solubility kinetic in series [3] (setting [9]) worked out at 33 µM (≈ 76 µg/mL). For the same compound, the EC50 was above 50 µM in series [4] (setting [10]), above 50.6 µM in series [5] (0% FBS 4Hr), above 50 µM in series [5] (0% FBS 16Hr) and above 50 µM in series [7] (LDH: Cytotoxicity assay EC50). Further, the “TETCHO: Counterscreen % Effect” value in series [5] (0% FBS 4Hr) amounted to 0.684%; in series [5] (0% FBS 16Hr) it was 0.2782%. The logD in [6] came to 1.86.
As for `CC(=O)N[C@@H](CCCCN=[N+]=[N-])C(=O)NCCC(=O)N[C@@H](CC(C)C)C(=O)N[C@H](C(=O)N[C@@H](Cc1ccccc1)C(=O)N[C@]1(C)CCCCCCC=CCCC[C@@](C)(C(=O)N[C@@H](CCO)C(=O)N[C@@H](CCO)C(=O)N[C@@H](Cc2ccccc2)C(=O)N[C@@H](CCO)C(=O)N[C@@H](CCO)C(=O)N[C@@H](Cc2ccccc2)C(N)=O)NC(=O)[C@H](CC2CCC2)NC(=O)[C@H](CCC(N)=O)NC(=O)[C@H](C)NC(=O)[C@H](Cc2c[nH]c3ccccc23)NC(=O)[C@H](Cc2ccc(O)cc2)NC(=O)[C@H](CCC(=O)O)NC1=O)[C@@H](C)O` [MP-803], the cell entry EC50 in [1] was found to be 6.86 µM. This compound displayed a solubility kinetic in series [3] (pH 7, Solubility) of 1 µM (≈ 2.44 µg/mL).

Broadly, the EC50 is the concentration giving half of the maximal effect. For orientation: logD means lipophilicity at a set pH, counting ionised and neutral species. A lower logD goes with lower lipophilicity.
